# Experimental data published in PubChem BioAssay (NCI).
#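 Exposure lasted 48 hours, with cells grown in 96-well plates and compounds tested at five concentrations. The concentration for full growth arrest is given as TGI.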
# Legend:
# Experiment in all cases: DTP human tumour cell line panel, 48 h
# [1] = tested on: COLO 205 colon
# [2] = tested on: KM12 colon
# [3] = tested on: NCI/ADR-RES ovarian
# [4] = tested on: SNB-78 CNS
# [5] = tested on: KM20L2 colon
# [6] = tested on: DMS 114 small cell lung
# [7] = tested on: HOP-18 NSCLC
# [8] = tested on: DMS 273 small cell lung
# [9] = tested on: DLD-1 colon
# [10] = tested on: HL-60(TB) leukemia
# [11] = tested on: HCT-15 colon
# [12] = tested on: XF 498 CNS
# [13] = tested on: SK-MEL-28 melanoma
# [14] = tested on: M14 melanoma
# [15] = tested on: ACHN renal
# [16] = tested on: BT-549 breast
# [17] = tested on: MDA-MB-231 breast
# [18] = tested on: MDA-N
# [19] = tested on: DU-145 prostate
# [20] = tested on: MDA-MB-435
SMILES,TGI [1] [µM],TGI [2] [µM],TGI [3] [µM],TGI [4] [µM],TGI [5] [µM],TGI [6] [µM],TGI [7] [µM],TGI [8] [µM],TGI [9] [µM],TGI [10] [µM],TGI [11] [µM],TGI [12] [µM],TGI [13] [µM],TGI [14] [µM],TGI [15] [µM],TGI [16] [µM],TGI [17] [µM],TGI [18] [µM],TGI [19] [µM],TGI [20] [µM]
O=C(O)CCCCCCCCC(=O)O,> 500,> 500,> 500,> 500,> 500,> 500,> 500,> 500,> 500,> 281,> 500,> 50,> 500,–,–,–,–,–,–,–
Cc1cc(C)c(/C=C(\C(=C/c2c(C)cc(C)cc2C)[N+](=O)[O-])[N+](=O)[O-])c(C)c1,> 100,> 100,–,–,–,–,–,–,–,–,–,–,> 100,> 100,> 100,> 100,> 100,> 100,> 100,> 100
O=C1c2cccc(O)c2C(=O)c2c(O)cc(CO)cc21,> 100,> 100,–,> 100,> 100,> 100,> 100,> 100,> 100,> 100,> 100,> 100,> 100,> 100,> 100,–,–,–,–,–
O=S1(=O)C[C@@H](NCc2ccccc2)[C@H](NCc2ccccc2)C1,> 100,> 100,> 100,–,–,–,–,–,–,–,–,–,> 100,> 100,> 100,> 100,> 100,> 100,> 100,> 100
